Test results reported in US11472795B2, “1H-indazole-3-carboxamide compounds as glycogen synthase kinase 3 beta inhibitors” (AZIENDE CHIMICHE RIUNITE ANGELINI FRANCESCO—A.C.R.A.F. …, priority 2018, dated 2022).

What was measured:
[1] = target: human GSK-3β (Homo sapiens (Human), UniProt P49841); test: Test I - Activity on human GSK-3β (LANCE substrate phosphorylation); format: biochemical; conditions: human recombinant GSK-3β, 90 minutes at 22° C., five concentrations 10 μM to 1 nM, duplicate; read-out: GSK-33 IC50
Chain of human GSK-3β (P49841 whole entry): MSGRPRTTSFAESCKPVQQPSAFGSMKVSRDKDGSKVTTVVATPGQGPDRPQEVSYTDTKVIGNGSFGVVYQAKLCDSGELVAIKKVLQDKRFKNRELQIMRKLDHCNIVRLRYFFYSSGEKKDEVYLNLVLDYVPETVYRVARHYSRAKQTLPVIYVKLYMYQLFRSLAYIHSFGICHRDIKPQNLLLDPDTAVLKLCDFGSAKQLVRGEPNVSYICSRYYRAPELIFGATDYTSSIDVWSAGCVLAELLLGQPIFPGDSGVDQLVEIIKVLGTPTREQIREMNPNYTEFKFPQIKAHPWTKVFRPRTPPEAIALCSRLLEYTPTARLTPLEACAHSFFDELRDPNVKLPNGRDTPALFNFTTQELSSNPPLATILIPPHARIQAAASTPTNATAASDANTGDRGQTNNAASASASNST
Experimental: Human recombinant enzyme GSK-3β was incubated for 90 minutes at 22° C. in the presence of compounds or vehicle in a reaction buffer containing ATP plus 100 nM unphosphorylated specific substrate peptide (Ulight-[…]-amide). Substrate phosphorylation was measured by LANCE technology (PerkinElmer, CT, USA).

[2] = target: hERG ion channel (Homo sapiens (Human), UniProt Q12809)
Chain of hERG ion channel (Q12809 whole entry): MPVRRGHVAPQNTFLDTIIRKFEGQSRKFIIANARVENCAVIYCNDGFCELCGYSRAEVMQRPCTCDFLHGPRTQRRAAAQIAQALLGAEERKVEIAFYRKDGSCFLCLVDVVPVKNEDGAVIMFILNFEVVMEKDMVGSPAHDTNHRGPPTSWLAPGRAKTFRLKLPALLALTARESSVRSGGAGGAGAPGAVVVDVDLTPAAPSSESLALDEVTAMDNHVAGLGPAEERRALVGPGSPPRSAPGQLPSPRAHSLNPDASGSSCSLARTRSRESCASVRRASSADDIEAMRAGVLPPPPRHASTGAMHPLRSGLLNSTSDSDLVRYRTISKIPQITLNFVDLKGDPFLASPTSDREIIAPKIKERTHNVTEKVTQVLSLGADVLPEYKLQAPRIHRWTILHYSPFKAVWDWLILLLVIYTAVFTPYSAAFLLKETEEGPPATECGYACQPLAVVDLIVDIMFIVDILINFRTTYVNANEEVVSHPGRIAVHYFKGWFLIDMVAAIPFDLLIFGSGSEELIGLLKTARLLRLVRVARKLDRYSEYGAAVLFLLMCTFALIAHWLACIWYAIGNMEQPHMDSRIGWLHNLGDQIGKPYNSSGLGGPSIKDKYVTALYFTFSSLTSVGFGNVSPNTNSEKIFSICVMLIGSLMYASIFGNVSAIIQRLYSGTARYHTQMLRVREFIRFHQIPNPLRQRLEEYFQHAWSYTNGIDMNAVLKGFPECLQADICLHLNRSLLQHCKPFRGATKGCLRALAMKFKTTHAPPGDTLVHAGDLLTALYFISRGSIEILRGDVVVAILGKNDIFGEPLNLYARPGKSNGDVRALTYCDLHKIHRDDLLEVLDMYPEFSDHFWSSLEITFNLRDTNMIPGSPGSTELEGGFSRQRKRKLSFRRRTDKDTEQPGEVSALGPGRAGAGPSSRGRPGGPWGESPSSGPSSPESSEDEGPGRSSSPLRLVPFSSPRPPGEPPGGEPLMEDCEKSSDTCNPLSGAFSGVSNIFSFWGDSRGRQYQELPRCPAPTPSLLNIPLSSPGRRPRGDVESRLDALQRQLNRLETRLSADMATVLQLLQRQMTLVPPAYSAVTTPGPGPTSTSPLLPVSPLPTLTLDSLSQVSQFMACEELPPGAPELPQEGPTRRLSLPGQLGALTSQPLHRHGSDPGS
Experimental: (2006), Expert Opin. Ther. Targets, 10 (2): 230-241 using the recombinant human cell line CHO-K1, which stably expresses the hERG ion channel.
The degree of inhibition (%) was obtained by measuring the tail current amplitude, which is induced by a one second test pulse to −40 mV after a two second pulse to +20 mV, before and after drug incubation (the difference current was normalized to control and multiplied by 100 to obtain the percent of inhibition). […] The concentration response relationship of each compound was constructed from the percentage reductions of current amplitude by sequential concentrations.

Compound | IC50 [1] | IC50 [2] | hERG/GSK-3β Ratio [2]
O=C(NC1CCS(=O)(=O)C1)c1n[nH]c2ccc(-c3cncc(CO)c3)cc12 (centres unmarked) [Compound 6, 5-(5-(Hydroxymethyl)pyridin-3-yl)-N-(1,1-dioxidotetrahydrothiophen-3-yl)-1H-indazole-3-carboxamide] | 17 nM | > 100000 nM | –
CC(C)Oc1cncc(-c2ccc3[nH]nc(C(=O)NCC4CCS(=O)(=O)C4)c3c2)c1 (centres unmarked) [Compound 11] | 12 nM | 5400 nM | 450
O=C(NCC1CCOCC1)c1n[nH]c2ccc(-c3cnccc3CN3CCCC3)cc12 [Compound 19, 5-(4-(Pyrrolidin-1-ylmethyl)pyridin-3-yl)-N-((tetrahydro-2H-pyran-4-yl)methyl)-1H-indazole-3-carboxamide] | 140 nM | 16000 nM | 114
O=C(NCC1CCOCC1)c1n[nH]c2ccc(-c3cnccc3CN3CCOCC3)cc12 [Compound 20, 5-(4-(Morpholinomethyl)pyridin-3-yl)-N-((tetrahydro-2H-pyran-4-yl)methyl)-1H-indazole-3-carboxamide carboxamide] | 18.5 nM | 46000 nM | 2,487
CN(C)Cc1ccncc1-c1ccc2[nH]nc(C(=O)NCC3CCOCC3)c2c1 [Compound 21, 5-(4-((Dimethylamino)methyl)pyridin-3-yl)-N-((tetrahydro-2H-pyran-4-yl)methyl)-1H-indazole-3-carboxamide] | 220 nM | 40000 nM | 182
O=C(NCC1CCOCC1)c1n[nH]c2ccc(-c3cnccc3CN3CCNCC3)cc12 [Compound 24, 5-(4-(piperazin-1-ylmethyl)pyridin-3-yl)-N-((tetrahydro-2H-pyran-4-yl)methyl)-1H-indazole-3-carboxamide] | 120 nM | 93800 nM | 782
CNCc1cncc(-c2ccc3[nH]nc(C(=O)NCC4CCOCC4)c3c2)c1 [Compound 28, 5-(5-((methylamino)methyl)pyridin-3-yl)-N-((tetrahydro-2H-pyran-4-yl)methyl)-1H-indazole-3-carboxamide] | 6 nM | > 100000 nM | –

Further compounds by falling IC50 [1], results first:

IC50 [1] | Compound | IC50 [2] | hERG/GSK-3β Ratio [2]
436 nM | O=C(NCC1CCCCO1)c1n[nH]c2ccc(-c3cccc(F)c3F)cc12 (centres unmarked) [Compound 14, 5-(2,3-Difluorophenyl)-N-((tetrahydro-2H-pyran-2-yl)methyl)-1H-indazole-3-carboxamide] | > 100000 nM | –
23 nM | CN(C)Cc1cncc(-c2ccc3[nH]nc(C(=O)NCC4CCOCC4)c3c2)c1 [Compound 16, 5-(5-((Dimethylamino)methyl)pyridin-3-yl)-N-((tetrahydro-2H-pyran-4-yl)methyl)-1H-indazole-3-carboxamide] | 44000 nM | 1,913
17 nM | CC(C)Oc1cncc(-c2ccc3[nH]nc(C(=O)NCC4CCOC4)c3c2)c1 (centres unmarked) [Compound 4, 5-(5-Isopropoxypyridin-3-yl)-N-((tetrahydrofuran-3-yl)methyl)-1H-indazole-3-carboxamide] | 6200 nM | 365
17 nM | O=C(NCC1CCOCC1)c1n[nH]c2ccc(-c3cncc(CN4CCCC4)c3)cc12 [Compound 17, 5-(5-(Pyrrolidin-1-ylmethyl)pyridin-3-yl)-N-((tetrahydro-2H-pyran-4-yl)methyl)-1H-indazole-3-carboxamide] | 6700 nM | 394
16 nM | COCc1cncc(-c2ccc3[nH]nc(C(=O)NCC4CCS(=O)(=O)C4)c3c2)c1 (centres unmarked) [Compound 5] | > 100000 nM | –
13 nM | O=C(NCC1CCOCC1)c1n[nH]c2ccc(-c3cncc(CN4CCOCC4)c3)cc12 [Compound 27, 5-(5-(morpholinomethyl)pyridin-3-yl)-N-((tetrahydro-2H-pyran-4-yl)methyl)-1H-indazole-3-carboxamide] | 3500 nM | 269
